Results from US11365199B2, “Pyrazole compounds as modulators of FSHR and uses thereof” (Merck Patent GmbH, priority 2013, dated 2022).

What was measured:
[1] = molecular target: T1, FSHR (Homo sapiens, UniProt P23945); assay: EC50 of cyclic AMP production in CHO FSHR cells + EC20 FSH (Assay A); assay type: cell-based; conditions: CHO FSHR cells + EC20 FSH, cAMP HTRF; read-out: Assay A: EC50 of cyclic AMP production
T1 construct: expressed in transfected cells; host or cells: CHO (Cho-FSHR-LUC-1-1-43)
T1 sequence (P23945 18-695): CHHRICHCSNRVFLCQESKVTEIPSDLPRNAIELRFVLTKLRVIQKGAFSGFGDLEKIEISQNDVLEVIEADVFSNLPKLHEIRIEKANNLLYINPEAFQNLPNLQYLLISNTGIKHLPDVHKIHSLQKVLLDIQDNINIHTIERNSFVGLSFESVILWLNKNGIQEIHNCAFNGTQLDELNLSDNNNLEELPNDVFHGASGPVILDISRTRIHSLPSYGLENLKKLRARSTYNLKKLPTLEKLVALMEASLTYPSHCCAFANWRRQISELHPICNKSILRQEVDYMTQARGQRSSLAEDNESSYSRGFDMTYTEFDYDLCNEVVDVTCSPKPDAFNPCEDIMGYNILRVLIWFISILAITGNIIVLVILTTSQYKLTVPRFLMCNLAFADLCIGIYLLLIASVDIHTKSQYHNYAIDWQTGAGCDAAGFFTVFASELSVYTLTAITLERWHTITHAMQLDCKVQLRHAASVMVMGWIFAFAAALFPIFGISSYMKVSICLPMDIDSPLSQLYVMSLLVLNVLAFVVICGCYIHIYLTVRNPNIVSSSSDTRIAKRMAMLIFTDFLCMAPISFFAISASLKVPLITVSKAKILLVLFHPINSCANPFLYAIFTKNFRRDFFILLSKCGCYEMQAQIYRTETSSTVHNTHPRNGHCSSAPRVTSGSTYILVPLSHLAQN
Procedure, shortened: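 Cho-FSHR-LUC cells were exposed to compound dilution series with EC20 FSH ([…]) and 200 μM IBMX for 1 h at 37° C. cAMP was read by HTRF (665/620 nm ratio). Effects are percent of the maximal FSH standard response.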

[2] = molecular target: T2, follicle-stimulating hormone (FSH) receptor (Rattus norvegicus, UniProt P20395); assay: Rat granulosa EC50 FSH (Assay B); assay type: cell-based; conditions: rat granulosa cells; read-out: Assay B: Rat granulosa EC50 FSH
T2 construct: endogenous in cells; host or cells: primary rat granulosa cells
T2 sequence (P20395 18-692): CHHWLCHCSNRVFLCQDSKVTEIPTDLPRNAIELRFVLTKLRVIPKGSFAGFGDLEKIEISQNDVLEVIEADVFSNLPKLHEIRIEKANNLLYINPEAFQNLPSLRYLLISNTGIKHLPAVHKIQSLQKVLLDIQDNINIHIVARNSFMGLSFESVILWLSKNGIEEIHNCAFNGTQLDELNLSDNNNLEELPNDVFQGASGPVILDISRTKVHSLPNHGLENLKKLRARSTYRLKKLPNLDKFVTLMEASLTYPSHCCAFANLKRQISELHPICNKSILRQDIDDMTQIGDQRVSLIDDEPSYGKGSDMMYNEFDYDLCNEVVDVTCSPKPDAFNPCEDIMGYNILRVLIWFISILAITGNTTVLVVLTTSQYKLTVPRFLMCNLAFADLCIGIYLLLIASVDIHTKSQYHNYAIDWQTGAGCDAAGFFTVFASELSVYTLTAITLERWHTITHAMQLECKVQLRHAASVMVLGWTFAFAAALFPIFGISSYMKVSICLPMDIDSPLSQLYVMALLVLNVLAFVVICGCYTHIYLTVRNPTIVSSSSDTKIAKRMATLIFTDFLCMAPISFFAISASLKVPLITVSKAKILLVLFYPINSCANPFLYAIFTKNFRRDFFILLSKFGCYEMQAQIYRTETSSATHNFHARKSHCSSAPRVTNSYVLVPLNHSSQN
Method: Rat Granulosa EC50 FSH (Assay B)
The assay was performed pursuant to the teaching of Yanofsky et al. (2006) Allosteric activation of the follicle-stimulating hormone (FSH) receptor by selective, nonpeptide agonists (JBC 281(19): 13226-13233, which is incorporated by reference in the disclosure of the invention).

SMILES	EC50 [1]	EC50 [2]
COc1cc2c(cc1-c1cc(C)nn1C)-c1c(c(C(=O)N3CCOCC3(C)C)nn1-c1ccsc1)CO2 [Compound 122, (3,3-Dimethyl-morpholin-4-yl)-[8-(2,5-dimethyl-2H-pyrazol-3-yl)-7-methoxy-1-thiophen-3-yl-1,4-dihydro-chromeno[4,3-c]pyrazol-3-yl]-methanone]	< 100 nM	> 5000 nM
COc1cc2c(cc1-c1cccn1C)-c1c(c(C(=O)N3CCOCC3(C)C)nn1-c1ccsc1)CO2 [Compound 125, (3,3-Dimethyl-morpholin-4-yl)-[7-methoxy-8-(1-methyl-1H-pyrrol-2-yl)-1-thiophen-3-yl-1,4-dihydro-chromeno[4,3-c]pyrazol-3-yl]-methanone]	< 100 nM	1000 to 5000 nM
COc1cc2c(cc1CC(C)C)-c1c(c(C(=O)N3CCCN(C(=O)C4CCCO4)CC3)nn1-c1ccsc1)CO2 (stereo not drawn) [Compound 21, (8-Isobutyl-7-methoxy-1-thiophen-3-yl-1,4-dihydro-chromeno[4,3-c]pyrazol-3-yl)-[4-(tetrahydro-furan-2-carbonyl)-[1,4]diazepan-1-yl]-methanone]	100 to 1000 nM	> 5000 nM
COc1cc2c(cc1SC(C)C)-c1c(c(C(=O)N(C)C(C)(C)C)nn1-c1ccsc1)CO2 [Compound 52, 8-isopropylsulfanyl-7-methoxy-1-thiophen-3-yl-1,4-dihydro-chromeno[4,3-c]pyrazole-3-carboxylic Acid tert-butyl-methyl-amide]	< 100 nM	100 to 1000 nM
COc1cc2c(cc1C1=CCOC1)-c1c(c(C(=O)N(C)C(C)(C)C)nn1-c1ccsc1)CO2 [Compound 151, 8-(2,5-Dihydro-furan-3-yl)-7-methoxy-1-thiophen-3-yl-1,4-dihydro-chromeno[4,3-c]pyrazole-3-carboxylic acid tert-butyl-methyl-amide]	< 100 nM	100 to 1000 nM
COc1cc2c(cc1OC(C)C)-c1c(c(C(=O)NCCCNC(=O)C3CCC3)nn1-c1ccsc1)CO2 [Compound 28, 8-Isopropoxy-7-methoxy-1-thiophen-3-yl-1,4-dihydro-chromeno[4,3-c]pyrazole-3-carboxylic Acid [3-(cyclobutanecarbonyl-amino)-propyl]-amide]	> 5000 nM	> 5000 nM

Other lines, results leading:

EC50 [1]	EC50 [2]	SMILES
< 100 nM	100 to 1000 nM	COC/C=C/c1cc2c(cc1OC)OCc1c(C(=O)N(C)C(C)(C)C)nn(-c3ccsc3)c1-2 [Compound 147, 7-Methoxy-8-((E)-3-methoxy-propenyl)-1-thiophen-3-yl-1,4-dihydro-chromeno[4,3-c]pyrazole-3-carboxylic acid tert-butyl-methyl-amide]
< 100 nM	< 100 nM	[2H]C([2H])([2H])OCC1(C)CCCN1C(=O)c1nn(-c2ccsc2)c2c1COc1cc(OC)c(-c3ccn(C)n3)cc1-2 (stereo not drawn) [Compound 182]
< 100 nM	< 100 nM	CCCn1cc(-c2cc3c(cc2OC)OCc2c(C(=O)N4CCOCC4(C)C)nn(-c4ccsc4)c2-3)cn1 [Compound 211, (3,3-Dimethyl-morpholin-4-yl)-[7-methoxy-8-(1-propyl-1H-pyrazol-4-yl)-1-thiophen-3-yl-1,4-dihydro-chromeno[4,3-c]pyrazol-3-yl]-methanone]
< 100 nM	1000 to 5000 nM	COC(=O)C1CCCN(C(=O)c2nn(-c3ccsc3)c3c2COc2cc(OC)c(OC(C)C)cc2-3)CC1 (stereo not drawn) [Compound 24, 1-(8-Isopropoxy-7-methoxy-1-thiophen-3-yl-1,4-dihydro-chromeno[4,3-c]pyrazole-3-carbonyl)-azepane-4-carboxylic acid methyl ester]
< 100 nM	100 to 1000 nM	COc1cc2c(cc1-c1ncco1)-c1c(c(C(=O)N(C)C(C)(C)C)nn1-c1ccsc1)CO2 [Compound 132, 7-Methoxy-8-oxazol-2-yl-1-thiophen-3-yl-1,4-dihydro-chromeno[4,3-c]pyrazole-3-carboxylic acid tert-butyl-methyl-amide]
< 100 nM	100 to 1000 nM	[2H]C([2H])([2H])OCC1(N(C(=O)c2nn(-c3ccsc3)c3c2COc2cc(OC)c(CC(C)C)cc2-3)C([2H])([2H])[2H])COC1 [Compound 162]
